Patent US20240287533A1, “GLUTEN MODIFICATION” (The Regents of the University of California, priority 2021, published 2024)
“Also recorded” adds a separate entry of the source.

Assays:
human monocytes (THP-1) = test: IL-8 production by THP-1 monocytes (ELISA); type: cell-based; settings: 18 hours; for IL-8 production compared to the dsDNA-gld-1 complex: peptide in the presence of dsDNA; for IL-8 secretion: dsDNA+peptide, compared to media control, dsDNA alone or peptide alone
Method: (§1) In order to test the biological impact of gluten peptide fragment/dsDNA complexes, human monocytes (THP-1) and human colorectal adenocarcinoma cells (HT-29) were treated with medium as a control, dsDNA alone, gld-1 alone, or dsDNA+gld-1 for 18 hours, then production and secretion of interleukin-8 (IL-8) were assessed by ELISA.

Escherichia coli dsDNA = test: Small Angle X-ray Scattering (SAXS) of peptide-dsDNA complexes; type: binding; settings: peptide incubated with genomic E. coli dsDNA
Method: The peaks correspond to a rhombic columnar lattice with inter dsDNA spacing, d=4.0 nm, and tilt angle, γ=104.6°. To facilitate visualization, spectra were manually offset vertically by a multiplicative factor.
Double stranded DNA (dsDNA) is an example of a PAMP that is readily available in the gastrointestinal tract (e.g., from food or the gut microbiome). To assess the ability of gluten derived peptide gld-1 to bind dsDNA, Escherichia coli dsDNA was incubated with gld-1, and the formation of an ordered dsDNA-gld-1 complex was assessed.
Small Angle X-ray Scattering (SAXS) measurements of the complex produced Bragg reflections at q10=1.61 and q11=2.55 nm^−1.
Genomic E. coli dsDNA was incubated with gld-2 and gld-3 to test the formation of an ordered dsDNA-peptide complex.

[1] = tested on: TLR9 knock-out (TLR9KO) mouse macrophages; test: Cytokine gene expression (qPCR) in TLR9 knockout macrophages; type: cell-based; settings: dsDNA-peptide complex, 20 hours, TLR9KO versus wild-type
Source text: (§2) To further validate the role of the dsDNA-gld-1 complex in the innate immune activation of TLR9, TLR9 knock-out (TLR9KO) mouse macrophages were compared to wild-type controls. […] Such increased gene expression was attenuated in TLR9KO macrophages, which lack TLR9 (FIG. 6C).

human wild-type TLR9 = target: T1, human wild-type TLR9 (Homo sapiens, UniProt Q9NR96); test: NF-κB/IL-8 luciferase reporter in HEK293 cells transfected with TLR9 plasmid; type: cell-based; settings: 4 hours
T1 construct: expressed in transfected cells
T1 sequence (Q9NR96 26-1032): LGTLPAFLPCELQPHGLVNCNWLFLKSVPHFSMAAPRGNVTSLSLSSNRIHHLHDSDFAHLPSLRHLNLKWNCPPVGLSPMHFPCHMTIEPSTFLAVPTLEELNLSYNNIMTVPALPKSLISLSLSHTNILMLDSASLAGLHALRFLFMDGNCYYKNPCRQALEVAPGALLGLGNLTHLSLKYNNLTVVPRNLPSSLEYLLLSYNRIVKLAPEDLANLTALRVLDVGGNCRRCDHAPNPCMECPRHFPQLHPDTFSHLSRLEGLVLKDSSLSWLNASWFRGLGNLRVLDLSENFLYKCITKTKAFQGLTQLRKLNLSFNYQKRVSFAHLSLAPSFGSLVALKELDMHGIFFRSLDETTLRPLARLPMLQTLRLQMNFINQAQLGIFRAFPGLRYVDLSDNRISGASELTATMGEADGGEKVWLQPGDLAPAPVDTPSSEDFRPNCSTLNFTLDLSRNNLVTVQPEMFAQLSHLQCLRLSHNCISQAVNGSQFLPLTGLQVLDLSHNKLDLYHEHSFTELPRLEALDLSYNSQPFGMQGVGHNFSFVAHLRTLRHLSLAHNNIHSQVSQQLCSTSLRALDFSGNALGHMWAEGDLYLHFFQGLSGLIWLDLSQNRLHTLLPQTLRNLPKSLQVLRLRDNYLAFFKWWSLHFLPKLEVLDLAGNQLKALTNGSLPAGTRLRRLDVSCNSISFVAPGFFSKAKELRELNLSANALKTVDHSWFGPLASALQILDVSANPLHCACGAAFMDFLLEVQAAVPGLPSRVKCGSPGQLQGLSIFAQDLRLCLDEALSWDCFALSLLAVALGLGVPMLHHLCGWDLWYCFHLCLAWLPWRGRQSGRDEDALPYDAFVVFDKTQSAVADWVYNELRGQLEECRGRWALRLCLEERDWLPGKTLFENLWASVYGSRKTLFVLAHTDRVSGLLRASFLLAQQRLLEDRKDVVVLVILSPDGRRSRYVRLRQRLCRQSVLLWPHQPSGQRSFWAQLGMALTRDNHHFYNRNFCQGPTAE
Method: TLR9, Toll-like Receptor 9.
(§3) After 48 hours of recovery, cells were then treated for 4 hours with medium as a control, dsDNA alone, gld-1 peptide alone, or dsDNA-gld-1 complex, and luciferase activity measured.

wild-type macrophages = test: Cytokine gene expression (qPCR) in wild-type macrophages; type: cell-based, mouse; settings: dsDNA-peptide complex, 20 hours
Source text: as §2

[2] = tested on: HEK293 cells (which do not express TLR9); test: NF-κB/IL-8 luciferase reporter in HEK293 cells transfected with pcDNA3.1 vector control; type: cell-based, human; settings: 4 hours
Method: as §3

[3] = tested on: human colorectal adenocarcinoma cells (HT-29); test: IL-8 production by HT-29 cells (ELISA); type: cell-based; settings: dsDNA+peptide, 18 hours, compared to dsDNA or peptide alone or media control
Method: as §1

LAAQLWQIPEQSRAQAIHNVVH (listed as Triticum aestivum) [gld-1A, variant of gld-1 in which all cysteines were replaced with alanines]
IL-8 production compared to the dsDNA-gld-1 complex (human monocytes (THP-1)): reduced the dsDNA-peptide complex activity

LWQIPEQSQCQAIHNVVHA (listed as Triticum aestivum) [gld-2, single mutation of gld-1 replacing a cationic amino acid with glutamine]
formation of an ordered nanocrystalline dsDNA-peptide complex (Bragg peaks) (Escherichia coli dsDNA): inability of these two peptides to form an ordered nanocrystalline columnar structure with dsDNA | IL-8 production compared to the dsDNA-gld-1 complex (human monocytes (THP-1)): attenuated production of IL-8

LWQIPEQSQCQAIHNVVQA (listed as Triticum aestivum) [gld-3, double mutation of gld-1 replacing cationic amino acids with glutamine]
formation of an ordered nanocrystalline dsDNA-peptide complex (Bragg peaks) (Escherichia coli dsDNA): inability of these two peptides to form an ordered nanocrystalline columnar structure with dsDNA | IL-8 production compared to the dsDNA-gld-1 complex (human monocytes (THP-1)): attenuated production of IL-8

LWQIPEQSRCQAIHNVVHA (listed as Triticum aestivum) [gld-1]
formation of an ordered nanocrystalline dsDNA-peptide complex (Bragg peaks) (Escherichia coli dsDNA): form strongly immunomodulatory complexes with dsDNA; also recorded: able to organize dsDNA into a nano-crystalline lattice structure; also recorded: able to form a well-structured complex | IL-6 gene expression [1]: attenuated | NF-κB/IL-8 activation (luciferase) (human wild-type TLR9; dsDNA-peptide complex, compared to dsDNA alone): significantly higher activation | NF-κB/IL-8 activation (luciferase) (human wild-type TLR9; dsDNA-peptide complex, compared to the media control): significant increase | NF-κB/IL-8 activation (luciferase) (human wild-type TLR9; peptide alone, compared to the media control): did not significantly increase activation | interleukin-6 (IL-6) gene expression (wild-type macrophages): significant increase | keratinocyte-derived chemokine (KC) gene expression (wild-type macrophages): significant increase | NF-κB/IL-8 luciferase reporter signal ([2]; dsDNA-peptide complex): comparable NF-κB/IL-8 luciferase reporter signal to the media control | NF-κB/IL-8 luciferase reporter signal ([2]; peptide alone): comparable NF-κB/IL-8 luciferase reporter signal to the media control | IL-8 secretion [3]: increased secretion of IL-8 | IL-8 secretion (human monocytes (THP-1)): significant increase in IL-8 secretion

RAAQQLRDVSAKARSVAVSQVAR (listed as Triticum aestivum) [gld-4A, cysteine-to-alanine mutant of gld-4]
IL-8 production, gld-4A compared to gld-4 (human monocytes (THP-1); with dsDNA): No significant difference

RCCQQLRDVSAKCRSVAVSQVAR (listed as Triticum aestivum) [gld-4]
IL-8 secretion (human monocytes (THP-1)): stimulated IL-8 production | IL-8 production compared to the dsDNA-gld-1 complex (human monocytes (THP-1)): smaller than the dsDNA-gld-1 complex
